Data taken from PMC5619818, “Exploring Lactobacillus reuteri DSM20016 as a biocatalyst for transformation of longer chain 1,2-diols: Limits with microcompartment” (PLoS ONE, 2017).

Tests used:
[1] = target: T1, PduQ (1,3-propanediol oxidoreductase) (Limosilactobacillus reuteri, UniProt A5VM99); experiment: NADH oxidation at […] nm; type: biochemical; details: NADH 0.2 mM, 50 mM potassium phosphate pH 7.0; aldehyde reduction
T1 construct: gene Lreu_1734
T1 sequence (A5VM99 1-373): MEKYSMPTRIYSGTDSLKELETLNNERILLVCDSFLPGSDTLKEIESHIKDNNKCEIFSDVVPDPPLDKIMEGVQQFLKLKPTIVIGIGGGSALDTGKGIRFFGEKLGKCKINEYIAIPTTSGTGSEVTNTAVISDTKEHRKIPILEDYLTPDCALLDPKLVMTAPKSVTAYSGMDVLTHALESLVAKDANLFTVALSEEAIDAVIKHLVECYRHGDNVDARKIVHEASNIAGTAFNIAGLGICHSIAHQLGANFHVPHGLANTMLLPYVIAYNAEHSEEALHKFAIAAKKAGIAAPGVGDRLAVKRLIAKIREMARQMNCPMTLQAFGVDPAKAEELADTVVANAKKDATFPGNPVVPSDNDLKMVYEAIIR

[2] = target: T2, PduP (coenzyme-A acylating propionaldehyde dehydrogenase) (Limosilactobacillus reuteri, UniProt A5VMA0); experiment: NADH formation at […] nm; type: biochemical; details: NAD+ 5 mM, HS-CoA 0.43 mM, 50 mM potassium phosphate pH 7.0, 1 mM DTT, 30 °C
T2 construct: gene Lreu_1735

purified protein = substrate: O=CCCO; experiment: purified protein; type: biochemical, Limosilactobacillus reuteri

CCCCCCCCCC=O [Decylaldehyde]
Km [1]: Hexanaldehyde (C6)< Octanaldehyde (C8)< Decylaldehyde (C10)
Km [2]: Hexanaldehyde (C6)< Octanaldehyde (C8)< Decylaldehyde (C10)

CCCCCCCC=O [Octanaldehyde]
Km [1]: Pentanaldehyde (C5)< Hexanaldehyde (C6)< Octanaldehyde (C8)
Km [2]: Pentanaldehyde (C5)< Hexanaldehyde (C6)< Octanaldehyde (C8)

B1: PduP (coenzyme-A acylating propionaldehyde dehydrogenase) (Limosilactobacillus reuteri subsp. reuteri) (protein)
chain: MQINDIESAVRKILAEELDNASSSSANVAATTDNGHRGIFTNVNDAIAAAKAAQEIYRDKPIAVRQQVIDAIKEGFRPYIEKMAKDIKEETGMGTVEAKIAKLNNALYNTPGPEILEPVVENGDGGMVMYERLPYGVIGAVGPSTNPSETVIANAIMMLAGGNTLYFGAHPGAKNVTRWTIEKMNDFIADATGLHNLVVSIETPTIESVQQMMKHPDIAMLAVTGGPAVVHQAMTSGKKAVGAGPGNPPAMVDATADIDLAAHNIITSASFDNDILCTAEKEVVAESSIKDELIRKMQDEGAFVVNREQADKLADMCIQENGAPDRKFVGKDATYILDQANIPYTGHPVEIICELPKEHPLVMTEMLMPILPVVSCPTFDDVLKTAVEVEKGNHHTATIHSNNLKHINNAAHRMQCSIFVVNGPSYVGTGVADNGAHSGASALTIATPTGEGTCTARTFTRRVRLNSPQGFSVRNWY
Km (purified protein; NAD+ 5 mM, HS-CoA 0.43 mM, 50 mM potassium phosphate pH 7.0, 1 mM DTT, 30 °C): 10.1 mM

B2: PduQ (1,3-propanediol oxidoreductase) (Limosilactobacillus reuteri subsp. reuteri) (protein)
chain: MEKYSMPTRIYSGTDSLKELETLNNERILLVCDSFLPGSDTLKEIESHIKDNNKCEIFSDVVPDPPLDKIMEGVQQFLKLKPTIVIGIGGGSALDTGKGIRFFGEKLGKCKINEYIAIPTTSGTGSEVTNTAVISDTKEHRKIPILEDYLTPDCALLDPKLVMTAPKSVTAYSGMDVLTHALESLVAKDANLFTVALSEEAIDAVIKHLVECYRHGDNVDARKIVHEASNIAGTAFNIAGLGICHSIAHQLGANFHVPHGLANTMLLPYVIAYNAEHSEEALHKFAIAAKKAGIAAPGVGDRLAVKRLIAKIREMARQMNCPMTLQAFGVDPAKAEELADTVVANAKKDATFPGNPVVPSDNDLKMVYEAIIR
Km (purified protein; NADH 0.2 mM, 50 mM potassium phosphate pH 7.0, aldehyde reduction): 28.7 mM
